Measurements: patent US10369134B2, “Nonracemic mixtures and uses thereof” (Sunovion Pharmaceuticals Inc., priority 2017, dated 2019)

Test system: freely moving rats
Assay: Sleep study of (R)-amisulpride (EEG/EMG sleep architecture)
Type: in vivo, rat
Experimental: Rapid eye movement (REM) sleep time, non-rapid eye movement (NREM) sleep time, WAKE time were measured using electroencephalogram (EEG) and electromyogram (EMG) recordings. […] EEG and EMG recordings were made for 6 hr starting at the beginning of the light phase. Vehicle (0.05 N HCl/0.5% Methyl Cellulose 400 solution) or dosing suspensions were orally administered 10 min before the beginning of light phase. The volume of administration was 5 mL/kg. The order of drug treatment varied pseudo-randomly and at least 1 week was allowed between the experiments for individual animals.
A radio transmitter (TL11M2-F40-EET; Data Science International, New Brighton, Minn., USA) was implanted subcutaneously in the back of anesthetized animals, and a pair of electrode wires was stereotaxically implanted into the skull in the following locations: one in the frontoparietal (2 mm anterior to the bregma and 2 mm left to the midline), and the other in parietal (5 mm posterior to the bregma and 2 mm right to the midline) areas. The EEG electrodes were fixed using dental cement. Electromyograms (EMG) were recorded from the dorsal neck muscle. The animals, then, were allowed at least 1 week recovery in individual plastic cages before EEG/EMG recording. EEG/EMG were recorded in the home cages in a soundproof box using Dataquest A.R.T. software (Data Science International, New Brighton, Minn., USA) at a sampling rate of 500 Hz.
Sleep stage analysis was conducted off-line using Sleepsign software (KISSEI COMTEC CO., LTD, Nagano, Japan). Electrographic activity of 10-sec epochs were analyzed and each epoch was automatically assigned as WAKE, REM, and NREM based on the waveforms of EEG and EMG according to the following definitions: WAKE was defined as a condition in which EMG exceeded the individual threshold, NREM was defined as a condition in which the power of delta waves (0.5-4 Hz) exceeded the individual threshold with no EMG activity, and REM was defined as a condition in which the power of theta waves (4-8 Hz) exceeded 40% of the total power of frequencies between 0.5 and 80 Hz in the presence of no EMG activity. The duration of each REM, WAKE, and NREM periods were calculated by summing time spent in each condition during sleep every 2 hours.
All data are expressed as means±S.E.M. REM sleep, NREM sleep time, and WAKE time each of sequential 2-hr periods were compared statistically using a repeated measures two-way ANOVA, followed by post-hoc Dunnett tests.

For CCN1CCC[C@@H]1CNC(=O)c1cc(S(=O)(=O)CC)c(N)cc1OC [(R)-amisulpride, R-4-Amino-N-[(1-ethyl-2-pyrrolidinyl)methyl]-5-(ethylsulfonyl)-2-methoxybenzamide], the “REM sleep duration” value (rat, 100 mg/kg p.o., 0-2 hr and 2-4 hr periods after administration) was “significant reductions”, the “NREM sleep time” value (rat, 10, 30, 100 mg/kg p.o.) was “no observed effect” and the “WAKE time” value (rat, 10, 30, 100 mg/kg p.o.) was “no observed effect”. The “REM sleep duration” value (rat, 10, 30, 100 mg/kg p.o., light phase) was “reduced REM sleep duration in dose-dependent manner”.
